Molecular target: T1, Nuclear receptor ROR-gamma (Homo sapiens, UniProt P51449)
T1 sequence (P51449 whole entry): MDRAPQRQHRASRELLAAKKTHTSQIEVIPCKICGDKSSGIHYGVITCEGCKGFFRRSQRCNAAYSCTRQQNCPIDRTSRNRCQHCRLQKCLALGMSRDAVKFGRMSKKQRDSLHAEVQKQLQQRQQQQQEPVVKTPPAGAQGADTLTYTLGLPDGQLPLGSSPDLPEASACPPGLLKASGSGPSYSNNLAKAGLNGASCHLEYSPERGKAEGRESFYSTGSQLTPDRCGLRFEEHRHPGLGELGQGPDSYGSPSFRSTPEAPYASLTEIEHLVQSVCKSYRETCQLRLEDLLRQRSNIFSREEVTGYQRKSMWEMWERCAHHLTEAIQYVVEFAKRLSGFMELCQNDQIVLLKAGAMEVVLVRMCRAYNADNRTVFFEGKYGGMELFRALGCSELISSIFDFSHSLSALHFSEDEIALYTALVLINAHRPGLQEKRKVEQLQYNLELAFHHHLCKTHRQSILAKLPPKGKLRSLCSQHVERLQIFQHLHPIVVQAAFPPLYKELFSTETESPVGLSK
Assay: Binding Assay
Procedure: Compounds of the present invention were tested for ability to bind to RORγ in a cell-free competition assay with commercially available radio-ligand (RL), 25-hydroxy [26,27-3H] cholesterol (PerkinElmer, Cat. # NET674250UC), for a ligand binding site on a recombinant RORγ Ligand Binding Domain (LBD) protein expressed as a 6×His-Glutathione-S-Transferase (GST) fusion ( 6×His disclosed as SEQ ID NO: 2). The assay was performed in 96-well SPA plates (PerkinElmer, Cat. #1450-401) in 50 mM HEPES buffer, pH 7.4, containing 150 mM NaCl, 5 mM MgCl2, 10% (v/v) glycerol, 2 mM CHAPS, 0.5 mM β-octylglucopyranoside and 5 mM DTT. Tested compounds were dissolved in DMSO, and semi-log (3.162×) serial dilutions of the compounds were prepared in the same solvent. Two μL of the DMSO solutions were mixed with 28 μL of 8.6 nM 25-hydroxy [26,27-3H] cholesterol and 50 μL of 24 nM RORγ LBD. […] SPA signal for tritium beta radiation was registered on PerkinElmer Microbeta plate reader. Percent inhibition values were calculated based on the high signal obtained with DMSO control and the low signal observed with 10 μM standard RORγ inverse agonist T0901317 (SigmaAldrich, Cat. # T2320). The percent inhibition vs. concentration data were fit into a four-parameter model, and […] values were calculated from the fit as the concentrations corresponding to the inflection points on the dose-response curves.

Ki: < 100 nM
SMILES: CCS(=O)(=O)c1ccc(CC(=O)Nc2nc3c(s2)CN(CC2CC[C@@H](C(F)(F)F)N(C)C2)[C@H]3C(C)C)cc1 (stereo partly specified) [US9868748, I-A30]
